Laboratory results: article PMC6934184, “Selective DNA-PKcs inhibition extends the therapeutic index of localized radiotherapy and chemotherapy” (The Journal of Clinical Investigation, 2019)

Biological target: T1, TNK2 (ACK) (Homo sapiens, UniProt Q07912)
T1 construct: purchased Thermo Fisher Scientific (Life Technologies) SelectScreen
Assay: SelectScreen LanthaScreen
Assay type: binding
Settings: read-out: % displacement
Outline: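 Percent values come from Thermo SelectScreen profiling of NU5455, combining activity and binding assays. CSF1R was run in Z'LYTE format at Km app ATP, and CAMK1 in Adapta format with ATP listed at 10.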

T1 sequence (Q07912 whole entry): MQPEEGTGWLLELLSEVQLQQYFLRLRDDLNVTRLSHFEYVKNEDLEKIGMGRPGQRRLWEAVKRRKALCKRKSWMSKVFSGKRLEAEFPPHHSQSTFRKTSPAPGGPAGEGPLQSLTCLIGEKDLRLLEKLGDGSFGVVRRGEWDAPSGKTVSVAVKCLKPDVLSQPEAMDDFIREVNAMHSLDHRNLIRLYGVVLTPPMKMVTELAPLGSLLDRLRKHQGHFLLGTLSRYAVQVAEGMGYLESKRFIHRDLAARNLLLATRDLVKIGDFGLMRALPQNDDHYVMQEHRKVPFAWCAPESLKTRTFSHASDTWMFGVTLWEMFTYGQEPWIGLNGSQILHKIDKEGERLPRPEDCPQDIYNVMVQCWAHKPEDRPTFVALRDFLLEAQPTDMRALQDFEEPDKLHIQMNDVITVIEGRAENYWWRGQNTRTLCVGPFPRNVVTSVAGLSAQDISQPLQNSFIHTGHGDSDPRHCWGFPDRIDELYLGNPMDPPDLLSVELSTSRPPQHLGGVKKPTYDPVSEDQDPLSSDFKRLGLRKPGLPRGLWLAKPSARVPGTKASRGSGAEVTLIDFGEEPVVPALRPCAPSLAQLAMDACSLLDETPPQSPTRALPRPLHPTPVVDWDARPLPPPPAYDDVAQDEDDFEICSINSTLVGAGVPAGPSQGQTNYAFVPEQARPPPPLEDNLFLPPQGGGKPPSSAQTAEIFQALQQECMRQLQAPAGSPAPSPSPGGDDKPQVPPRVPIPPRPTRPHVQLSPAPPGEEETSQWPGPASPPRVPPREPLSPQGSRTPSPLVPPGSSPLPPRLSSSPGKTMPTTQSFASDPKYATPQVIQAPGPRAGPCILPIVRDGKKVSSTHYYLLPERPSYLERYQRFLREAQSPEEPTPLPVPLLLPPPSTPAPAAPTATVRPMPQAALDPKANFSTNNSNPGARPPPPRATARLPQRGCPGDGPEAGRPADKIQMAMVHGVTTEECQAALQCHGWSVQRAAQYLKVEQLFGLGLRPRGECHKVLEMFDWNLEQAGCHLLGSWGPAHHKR

## CN(C(=O)CN1CCOCC1)c1ccc2sc3c(-c4cccc5c(=O)cc(N6CC7CCC(C6)O7)oc45)cccc3c2c1 [NU5455]
  inhibition at 1 µM: 1.8%
